Laboratory results from article PMC6385481 (Chemical Science, 2018).
“Also recorded” adds a separate entry of the source.

Legend:
[1] = biological target: TAP (Homo sapiens, UniProt Q03518+Q03519); assay: TAP-dependent peptide transport of NST-F in Raji microsomes; type: biochemical; conditions: read-out: inhibition of TAP-dependent peptide translocation before illumination
[2] = biological target: T1, TAP (core-TAP1mVenus/core-TAP2mCerulean containing crude membranes from Pichia pastoris) (Homo sapiens, UniProt Q03518+Q03519); assay: Filter-based peptide competition assay; type: binding; conditions: 100 μM inhibitor; illumination at 365 nm
T1 sequence (Q03518 167-748 limits assumed): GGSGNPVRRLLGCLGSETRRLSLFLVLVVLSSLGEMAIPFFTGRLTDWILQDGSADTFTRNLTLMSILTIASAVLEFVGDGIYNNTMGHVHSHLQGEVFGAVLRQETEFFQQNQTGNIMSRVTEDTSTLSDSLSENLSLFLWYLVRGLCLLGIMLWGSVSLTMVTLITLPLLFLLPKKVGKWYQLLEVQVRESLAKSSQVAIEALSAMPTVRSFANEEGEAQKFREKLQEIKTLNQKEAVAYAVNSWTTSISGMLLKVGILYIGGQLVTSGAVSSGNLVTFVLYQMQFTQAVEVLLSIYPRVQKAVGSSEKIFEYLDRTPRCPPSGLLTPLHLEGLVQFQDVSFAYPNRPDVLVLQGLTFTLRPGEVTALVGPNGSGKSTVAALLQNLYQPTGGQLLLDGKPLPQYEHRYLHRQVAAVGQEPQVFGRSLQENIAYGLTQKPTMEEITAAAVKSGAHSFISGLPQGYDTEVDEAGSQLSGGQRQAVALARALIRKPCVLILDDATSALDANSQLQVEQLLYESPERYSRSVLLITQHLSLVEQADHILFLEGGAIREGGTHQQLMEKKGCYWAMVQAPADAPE
T1 sequence (Q03519 125-686 limits assumed): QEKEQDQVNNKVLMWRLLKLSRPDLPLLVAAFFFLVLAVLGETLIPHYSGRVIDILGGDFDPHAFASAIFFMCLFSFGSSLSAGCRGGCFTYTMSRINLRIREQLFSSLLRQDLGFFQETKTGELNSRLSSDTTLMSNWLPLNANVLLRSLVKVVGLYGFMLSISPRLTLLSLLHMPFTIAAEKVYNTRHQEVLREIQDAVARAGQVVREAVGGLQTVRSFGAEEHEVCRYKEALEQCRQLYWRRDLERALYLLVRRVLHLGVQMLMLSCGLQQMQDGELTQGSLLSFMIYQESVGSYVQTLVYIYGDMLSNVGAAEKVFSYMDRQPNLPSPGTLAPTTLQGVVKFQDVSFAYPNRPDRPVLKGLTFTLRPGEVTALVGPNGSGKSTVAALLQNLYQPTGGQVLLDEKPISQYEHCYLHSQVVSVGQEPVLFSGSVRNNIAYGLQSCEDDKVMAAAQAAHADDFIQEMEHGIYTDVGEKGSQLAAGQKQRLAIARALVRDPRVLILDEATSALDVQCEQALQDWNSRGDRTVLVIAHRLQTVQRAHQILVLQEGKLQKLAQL

Chain of TAP (Q03518 whole entry): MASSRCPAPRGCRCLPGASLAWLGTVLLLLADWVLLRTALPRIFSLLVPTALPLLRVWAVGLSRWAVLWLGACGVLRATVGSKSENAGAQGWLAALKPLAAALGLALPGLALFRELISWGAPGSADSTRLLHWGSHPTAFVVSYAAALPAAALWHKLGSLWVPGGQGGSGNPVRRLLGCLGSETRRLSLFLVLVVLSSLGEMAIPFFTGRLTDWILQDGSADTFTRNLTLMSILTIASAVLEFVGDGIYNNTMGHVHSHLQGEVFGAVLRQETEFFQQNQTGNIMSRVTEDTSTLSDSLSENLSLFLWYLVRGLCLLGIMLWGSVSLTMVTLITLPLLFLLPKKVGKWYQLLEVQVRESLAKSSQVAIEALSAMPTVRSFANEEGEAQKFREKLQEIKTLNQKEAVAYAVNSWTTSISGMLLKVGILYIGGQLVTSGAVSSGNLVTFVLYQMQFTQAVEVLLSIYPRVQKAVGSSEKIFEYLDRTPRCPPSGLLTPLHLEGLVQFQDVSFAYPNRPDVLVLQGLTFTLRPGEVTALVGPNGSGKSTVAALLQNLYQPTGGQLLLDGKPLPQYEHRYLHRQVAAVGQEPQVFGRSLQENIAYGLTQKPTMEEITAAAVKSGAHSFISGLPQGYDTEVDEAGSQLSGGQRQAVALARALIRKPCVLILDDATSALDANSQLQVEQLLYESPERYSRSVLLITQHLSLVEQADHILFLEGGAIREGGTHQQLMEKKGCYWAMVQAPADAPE
Chain of TAP (Q03519 whole entry): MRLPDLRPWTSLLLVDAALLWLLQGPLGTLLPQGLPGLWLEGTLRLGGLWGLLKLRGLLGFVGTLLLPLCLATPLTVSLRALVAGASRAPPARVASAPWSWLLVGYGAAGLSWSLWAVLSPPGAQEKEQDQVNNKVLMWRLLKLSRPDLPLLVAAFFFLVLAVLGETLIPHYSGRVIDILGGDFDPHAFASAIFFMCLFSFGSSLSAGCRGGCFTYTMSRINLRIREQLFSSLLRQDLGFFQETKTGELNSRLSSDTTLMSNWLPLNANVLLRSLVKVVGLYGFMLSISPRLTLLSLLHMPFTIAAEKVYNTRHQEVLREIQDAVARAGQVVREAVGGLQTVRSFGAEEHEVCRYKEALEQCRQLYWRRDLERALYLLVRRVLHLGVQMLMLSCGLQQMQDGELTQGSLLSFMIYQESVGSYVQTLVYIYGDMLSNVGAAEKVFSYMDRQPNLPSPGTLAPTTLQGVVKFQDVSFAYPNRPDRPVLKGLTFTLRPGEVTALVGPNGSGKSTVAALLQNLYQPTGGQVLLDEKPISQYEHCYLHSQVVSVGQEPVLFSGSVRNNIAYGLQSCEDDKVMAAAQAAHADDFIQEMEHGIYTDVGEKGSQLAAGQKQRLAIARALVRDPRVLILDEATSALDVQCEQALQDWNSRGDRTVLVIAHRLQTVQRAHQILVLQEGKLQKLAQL
Chain of TAP (O15533 21-448 partner): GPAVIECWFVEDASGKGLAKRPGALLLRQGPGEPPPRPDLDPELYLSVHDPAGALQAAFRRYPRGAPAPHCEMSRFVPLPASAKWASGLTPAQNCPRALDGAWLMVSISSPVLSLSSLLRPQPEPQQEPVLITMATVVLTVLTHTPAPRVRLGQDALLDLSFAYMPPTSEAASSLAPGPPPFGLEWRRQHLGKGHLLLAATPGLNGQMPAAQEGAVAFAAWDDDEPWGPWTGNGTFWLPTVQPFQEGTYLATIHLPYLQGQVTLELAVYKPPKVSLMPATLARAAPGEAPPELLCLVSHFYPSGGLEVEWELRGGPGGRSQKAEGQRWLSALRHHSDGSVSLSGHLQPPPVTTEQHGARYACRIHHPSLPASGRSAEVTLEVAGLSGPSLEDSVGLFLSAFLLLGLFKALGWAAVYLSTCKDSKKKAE
Chain of TAP (P30101 25-505 partner): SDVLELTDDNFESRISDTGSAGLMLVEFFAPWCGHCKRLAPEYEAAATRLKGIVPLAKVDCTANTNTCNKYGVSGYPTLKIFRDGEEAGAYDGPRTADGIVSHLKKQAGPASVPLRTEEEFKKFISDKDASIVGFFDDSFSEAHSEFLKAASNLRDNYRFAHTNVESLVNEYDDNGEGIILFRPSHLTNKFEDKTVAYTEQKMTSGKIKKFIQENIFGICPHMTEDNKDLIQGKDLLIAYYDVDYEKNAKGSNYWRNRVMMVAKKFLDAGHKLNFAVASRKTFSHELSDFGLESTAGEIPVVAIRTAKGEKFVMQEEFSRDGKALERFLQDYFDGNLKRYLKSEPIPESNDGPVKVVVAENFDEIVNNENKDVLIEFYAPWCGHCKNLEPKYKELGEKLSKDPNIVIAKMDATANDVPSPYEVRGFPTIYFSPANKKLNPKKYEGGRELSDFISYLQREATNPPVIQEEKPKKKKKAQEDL

For `CC[C@H](C)[C@H](NC(=O)[C@H](CCC(=O)O)NC(=O)[C@H](CC(=O)O)NC(=O)[C@H](CCCNC(=N)N)NC(=O)[C@@H](NC(=O)[C@H](CC(=O)O)NC(=O)[C@H](C)NC(=O)[C@H](Cc1ccc(O)cc1)NC(=O)[C@@H](NC(=O)[C@H](CCCNC(=N)N)NC(=O)[C@@H]1CCCN1C(=O)CNC(=O)[C@@H](NC(=O)[C@H](CCCNC(=N)N)NC(=O)[C@H](CCSC)NC(=O)[C@H](CC(N)=O)NC(=O)[C@H](CC(=O)O)NC(=O)[C@H](CC(C)C)NC(=O)[C@H](Cc1ccccc1)NC(=O)[C@@H](NC(=O)[C@H](CC(=O)O)NC(=O)[C@H](C)NC(=O)[C@H](CCSC)NC(=O)[C@H](CCC(=O)O)NC(=O)[C@H](CC(C)C)NC(=O)[C@H](C)NC(=O)[C@H](Cc1c[nH]c2ccccc12)NC(=O)[C@@H](N)CO)[C@@H](C)O)C(C)C)[C@@H](C)O)C(C)C)C(=O)N[C@@H](CC(N)=O)C(=O)N[C@@H](CCCCN)C(=O)N[C@@H](CCCNC(=N)N)C(=O)NCC(=O)N[C@@H](CCCNC(=N)N)C(=O)O` [ICP47_2–34], the inhibition at 5 µM [1] was > 85% and the “effect of illumination on TAP peptide binding blocked by inhibitor” value [2] was “not affected by illumination; also recorded: did not recover the TAP activity”.
